Assays:
Format in all cases: cell-based
MCF-12A cells [1] = test: Cell viability by neutral red assay, MCF-12A; details: single agent, up to 6 days, Thalidomide 0.01-100 μM, CC-4047 and lenalidomide 0.001-10 μM, FIG. 6A
Protocol: (§1) Cells were seeded in 24 wells plates at a density of 10^4 cells per well and allowed to adhere for 24 hours. […] The drug was renewed every 2 days. Cell viability was then determined by neutral red assay, measuring absorbance at 550 nm.
(§2) After 6 days treatment, cells were seeded into 24 well plates at a density of 1×10^4 cells/wells. After 24 h, cells were treated with reagents or vehicle for up to six days. At the end of the incubation period, medium was removed and cells were incubated with neutral red solution (40 μg/ml in phenol red and serum free DMEM) for 2 h at 37° C. After removal of the neutral red solution, wells were rinsed once with 1 ml 4% formal saline containing 0.5% CaCl2. Plates were inverted on paper towel to drain and 200 μl of elution fluid (1% acetic acid in 50% ethanol) was added. Following incubation at room temperature for 30 min with gentle shaking, absorbance at 550 nm was determined

MCF-7 cells [2] = test: Cell viability by neutral red assay, MCF-7; details: single agent, up to 6 days, Thalidomide 0.01-100 μM, CC-4047 and lenalidomide 0.001-10 μM, FIG. 6A
Protocol: as §1, §2

MDA-MB-231 cells [3] = test: Cell viability by neutral red assay, MDA-MB-231; details: for effect on cell viability: single agent, up to 6 days, Thalidomide 0.01-100 μM, CC-4047 and lenalidomide 0.001-10 μM, FIG. 6A
Protocol: as §1, §2
(§3) To accomplish this, cells were treated for up to 6 days with different concentrations of a BCL-2 inhibitor, ABT-263 ([…]). Non-treated cells were used as a control. After 6 days of treatment, cell viability was measured by neutral red assay (FIG. 16). In the three cell lines, BCL-2 inhibition leads to cell death. The IC50 is almost equivalent in all cell lines (1 μM+/−0.2 μM).
(§4) More particularly, FIG. 16 illustrates the effects of BCL-2 inhibition on MCF-7VD^R and HBL-100 viability. MDA-MB-231, MCF-7/VD^R and HBL-100 cells were treated for up to 6 days with different concentrations of ABT-263 (0.2 up to 20 μM). Non-treated cells were used as a control. After 6 days of treatment, cell viability was measured by neutral red assay. Results are mean of three independent experiments (each made in quadruplicate).

MCF-12A cells [4] = test: Cell growth by Sulphorhodamine B (SRB) assay, MCF-12A; details: single agent, up to 6 days, Thalidomide 0.01-100 μM, CC-4047 and lenalidomide 0.001-10 μM, FIG. 6B
Protocol: (§5) Cells were seeded in 24 wells plates at a density of 10^4 cells per well and allowed to adhere for 24 hours. […] Each treatment was carried out for up to 7 days, but renewed every 2 days. Cell growth was then determined by Sulphorhodamine B (SRB) assay, measuring absorbance at 550 nm.
(§6) After 6 days treatment, cells were seeded in 24 well plates at a density of 1×10^4 cells/well. After 24 h cells were treated with reagents or vehicle for up to six days. Cells were treated for up to 6 days with log doses of Thalidomide (0.1 μM up to 100 μM), pomalidomide and lenalidomide (0 μM up to 10 μM). At the end of each experiment, cells were fixed to the bottom of the well by addition of ice-cold 50% w/v trichloroacetic acid (TCA) to give a final concentration of 10% TCA. Plates were incubated at 4° C. for 30 minutes and then washed with distilled water. Plates were allowed to air-dry at room temperature before staining with 0.4% w/v SRB in 1% v/v acetic acid and incubated for 15 minutes on a shaker. The plates were then extensively washed with 1% acetic acid to remove unbound dye and were again allowed to air-dry at room temperature. Incorporated dye was solubilised with 200 μl […] Tris base. 100 μl aliquots were transferred to a 96 well plate and absorbance at 550 nm was determined

MCF-7 cells [5] = test: Cell growth by Sulphorhodamine B (SRB) assay, MCF-7; details: single agent, up to 6 days, Thalidomide 0.01-100 μM, CC-4047 and lenalidomide 0.001-10 μM, FIG. 6B
Protocol: as §5, §6

MDA-MB-231 cells [6] = test: Cell growth by Sulphorhodamine B (SRB) assay, MDA-MB-231
Protocol: Cells were seeded in 24 wells plates at a density of 10^4 cells per well and allowed to adhere for 24 hours. To determine the combination effects of the drugs, cells were treated with 100 nM 1,25 D3 and 10 nM 1-oxo-2-(2,6-dioxopiperidin-3-yl)-4-aminoisoindoline or 1,3-dioxo-2-(2,6-dioxopiperidin-3-3-yl)-4-aminoisoindoline. Each treatment was carried out for up to 7 days, but renewed every 2 days. Cell growth was then determined by Sulphorhodamine B (SRB) assay, measuring absorbance at 550 nm.
Cells were seeded in 24 wells plates at a density of 10^4 cells per wekk and allowed to adhere for 24 hours. To determine the combination effects of the drugs, cells were treated with 100 nM 1,25 D3 and varying doses of 1-oxo-2-(2,6-dioxopiperidin-3-yl)-4-aminoisoindoline or 1,3-dioxo-2-(2,6-dioxopiperidin-3-yl)-4-aminoisoindoline. Each treatment was carried out for up to 7 days, but renewed every 2 days. Cell growth was then determined by Sulphorhodamine B (SRB) assay, measuring absorbance at 550 nm.
as §6

MCF-7/VD^R cells = test: Cell viability by neutral red assay, MCF-7/VD^R; details: Homo sapiens, MCF7, 144 h; ABT-263, 6 days, FIG. 16; read-out: IC50 (cell viability / killing)
Excerpt: (§7) Non-treated cells were used as a control.
as §7

HBL-100 cells = test: Cell viability by neutral red assay, HBL-100; details: Homo sapiens, HBL-100, 144 h; ABT-263, 6 days, FIG. 16; read-out: IC50 (cell viability / killing)
Protocol: as §2
In order to validate the previous results obtained in MDA-MB-231 cells, two other vitamin D resistant cell lines MCF-7/VD^R and HBL-100 cells, were investigated. First the effect of lenalidomide on these cells lines were investigated. To this end, cells were treated for up to 6 days with different concentrations of lenalidomide (0 μM up to 10 μM). Cell viability was measured by neutal red dye assay (FIG. 13).
More particularly, FIG. 13 illustrates the effects of lenalidomide treatment on MCF-7/VDR and HBL-100 viability. MCF-7/VDR and HBL-100 cells were treated for up to 6 days with different concentrations of lenalidomide (0 μM up to 10 μM). Cell viability was measured by neutral red dye assay. Results are mean of three independent experiments (each made in quadruplicate).
Cell viability was measured by neutral red dye assay (FIG. 14).
More particularly, FIG. 14 illustrates the effects of lenalidomide/1, 25-D3 co-treatment on MCF-7/VDR and HBL-100 viability. MCF-7/VDR and HBL-100 cells were treated for up to 6 days with different concentrations of lenalidomide (0.01 μM up to 1 μM) alone or in combination with different concentrations of 1, 25-D3 (0 for up to 1000 nM). Cell viability was measured by neutral red dye assay. Results are mean of three independent experiments (each made in quadruplicate).
as §3, §4

Row | Compound | effect on cell viability (MCF-12A cells [1]) | effect on cell viability (MCF-7 cells [2]) | effect on cell viability (MDA-MB-231 cells [3]) | effect on cell growth (MCF-12A cells [4]) | effect on cell growth (MCF-7 cells [5]) | minimal concentration giving statistically significant inhibition of growth (MDA-MB-231 cells [6]; in the presence of 100 nM 1,25 D3, up to 7 days, FIG. 3) | effect on cell growth (MDA-MB-231 cells [6]; single agent, 0.001-10 μM, up to 6 days) | IC50 (MDA-MB-231 cells [3]; Homo sapiens, MDA-MB-231, 144 h, ABT-263, 6 days, FIG. 16, read-out: IC50 (cell viability / killing)) | IC50 (MCF-7/VD^R cells) | IC50 (HBL-100 cells) | inhibition at 100 µM (MDA-MB-231 cells [6]; Homo sapiens, MDA-MB-231, 144 h, single agent, 100 μM Thalidomide (highest dose), up to 6 days)
1 | Nc1cccc2c1C(=O)N(C1CCC(=O)NC1=O)C2=O (stereo not shown) [Pomalidomide, 1,3-dioxo-2-(2,6-dioxopiperidin-3-yl)-4-aminoisoindoline] | do not Affect | do not Affect | do not Affect | do not Affect | do not Affect | 0.1 µM | no effects | – | – | – | –
2 | CC1(C)CCC(c2ccc(Cl)cc2)=C(CN2CCN(c3ccc(C(=O)NS(=O)(=O)c4ccc(N[C@H](CCN5CCOCC5)CSc5ccccc5)c(S(=O)(=O)C(F)(F)F)c4)cc3)CC2)C1 [ABT-263] | – | – | – | – | – | – | – | 1000 nM | 1000 nM | 1000 nM | –
3 | O=C1CCC(N2C(=O)c3ccccc3C2=O)C(=O)N1 (stereo not shown) [Thalidomide] | do not Affect | do not Affect | do not Affect | do not Affect | do not Affect | – | – | – | – | – | 20%

From patent US8841325B2, “Immunomodulatory compounds for the restoration of vitamin D sensitivity in vitamin D resistant tumor cells” (Celgene Corporation, priority 2009, dated 2014)
